Where “and” joins values, the source holds several entries; their conditions need not be identical. Identical values can stand only once. Like-named read-outs stand apart in the source and are kept apart here.
Tested on: DENV-2 RL
Experiment: microbe, parasite or virus in culture
Assay type: cell-based

COc1cc(N[C@H](C(=O)c2c[nH]c3ccc(OC(F)(F)F)cc23)c2ccc(Cl)cc2OC)cc(S(C)(=O)=O)c1 [JNJ-1802]
EC50 (A sample, passage 20, read-out: EC50 values Ave): 32.2 nM
EC50 (A sample, passage 21, read-out: EC50 values Ave): 32.2 nM
EC50 (A sample, passage 22, read-out: EC50 values Ave): 32.2 nM
EC50 (A sample, passage 23, read-out: EC50 values Ave): 32.2 nM
EC50 (B sample, passage 29, read-out: EC50 values Ave): 32.2 nM
EC50 (B sample, passage 30, read-out: EC50 values Ave): 32.2 nM
EC50 (Dengue virus, DENV2, Vero, read-out: EC50 by microscopic evaluation of CPE, experiment A, passage 0): 0.06 nM
EC50 (Dengue virus, DENV2, Vero, read-out: EC50 by microscopic evaluation of CPE, experiment A, passage 5): 0.06 nM
EC50 (Dengue virus, DENV2, Vero, read-out: EC50 by microscopic evaluation of CPE, experiment A, passage 10): 0.25 nM
EC50 (Dengue virus, DENV2, Vero, read-out: EC50 by microscopic evaluation of CPE, experiment A, passage 15): 1 nM
EC50 (Dengue virus, DENV2, Vero, read-out: EC50 by microscopic evaluation of CPE, experiment A, passage 25): 64 nM
EC50 (Dengue virus, DENV2, Vero, read-out: EC50 by microscopic evaluation of CPE, experiment A, passage 30): 260 nM
EC50 (Dengue virus, DENV2, Vero, read-out: EC50 by microscopic evaluation of CPE, experiment A, passage 35): 260 nM
EC50 (Dengue virus, DENV2, Vero, read-out: EC50 by microscopic evaluation of CPE, experiment A, passage 40): 1290 nM
EC50 (Dengue virus, DENV2, Vero, read-out: EC50 by microscopic evaluation of CPE, experiment A, passage 42): 1290 nM
EC50 (Dengue virus, DENV2, Vero, read-out: EC50 by microscopic evaluation of CPE, experiment B, passage 0): 0.06 nM
EC50 (Dengue virus, DENV2, Vero, read-out: EC50 by microscopic evaluation of CPE, experiment B, passage 5): 0.06 nM
EC50 (Dengue virus, DENV2, Vero, read-out: EC50 by microscopic evaluation of CPE, experiment B, passage 20): 0.5 nM
EC50 (Dengue virus, DENV2, Vero, read-out: EC50 by microscopic evaluation of CPE, experiment B, passage 25): 4 nM
EC50 (Dengue virus, DENV2, Vero, read-out: EC50 by microscopic evaluation of CPE, experiment B, passage 35): 80 nM
EC50 (Dengue virus, DENV2, Vero, read-out: EC50 by microscopic evaluation of CPE, experiment B, passage 45): 640 nM
EC50 (Dengue virus, DENV2, Vero, read-out: EC50 by microscopic evaluation of CPE, experiment B, passage 50): 1290 nM
EC50 (Dengue virus, DENV2, Vero, read-out: EC50 values Ave, A sample, passage 1): 3.7e-05 µg/mL and 0.063 nM
EC50 (Dengue virus, DENV2, Vero, read-out: EC50 values Ave, A sample, passage 2): 3.7e-05 µg/mL and 0.063 nM
EC50 (Dengue virus, DENV2, Vero, read-out: EC50 values Ave, A sample, passage 3): 3.7e-05 µg/mL and 0.063 nM
EC50 (Dengue virus, DENV2, Vero, read-out: EC50 values Ave, A sample, passage 4): 3.7e-05 µg/mL and 0.063 nM
EC50 (Dengue virus, DENV2, Vero, read-out: EC50 values Ave, A sample, passage 5): 3.7e-05 µg/mL and 0.063 nM
EC50 (Dengue virus, DENV2, Vero, read-out: EC50 values Ave, A sample, passage 6): 0.126 nM
EC50 (Dengue virus, DENV2, Vero, read-out: EC50 values Ave, A sample, passage 7): 3.7e-05 µg/mL and 0.063 nM
EC50 (Dengue virus, DENV2, Vero, read-out: EC50 values Ave, A sample, passage 8): 3.7e-05 µg/mL and 0.063 nM
EC50 (Dengue virus, DENV2, Vero, read-out: EC50 values Ave, A sample, passage 9): 0.126 nM
EC50 (Dengue virus, DENV2, Vero, read-out: EC50 values Ave, A sample, passage 10): 0.000146 µg/mL and 0.251 nM
EC50 (Dengue virus, DENV2, Vero, read-out: EC50 values Ave, A sample, passage 11): 0.000146 µg/mL and 0.251 nM
EC50 (Dengue virus, DENV2, Vero, read-out: EC50 values Ave, A sample, passage 12): 0.000146 µg/mL and 0.251 nM
EC50 (Dengue virus, DENV2, Vero, read-out: EC50 values Ave, A sample, passage 13): 0.000293 µg/mL and 0.503 nM
EC50 (Dengue virus, DENV2, Vero, read-out: EC50 values Ave, A sample, passage 14): 1.01 nM
EC50 (Dengue virus, DENV2, Vero, read-out: EC50 values Ave, A sample, passage 15): 1.01 nM
EC50 (Dengue virus, DENV2, Vero, read-out: EC50 values Ave, A sample, passage 16): 0.00117 µg/mL and 2.01 nM
EC50 (Dengue virus, DENV2, Vero, read-out: EC50 values Ave, A sample, passage 17): 0.00234 µg/mL and 4.02 nM
EC50 (Dengue virus, DENV2, Vero, read-out: EC50 values Ave, A sample, passage 18): 0.00469 µg/mL and 8.04 nM
EC50 (Dengue virus, DENV2, Vero, read-out: EC50 values Ave, A sample, passage 24): 0.0375 µg/mL and 64.3 nM
EC50 (Dengue virus, DENV2, Vero, read-out: EC50 values Ave, A sample, passage 25): 0.0375 µg/mL and 64.3 nM
EC50 (Dengue virus, DENV2, Vero, read-out: EC50 values Ave, A sample, passage 26): 129 nM
EC50 (Dengue virus, DENV2, Vero, read-out: EC50 values Ave, A sample, passage 27): 0.15 µg/mL and 257 nM
EC50 (Dengue virus, DENV2, Vero, read-out: EC50 values Ave, A sample, passage 28): 0.15 µg/mL and 257 nM
EC50 (Dengue virus, DENV2, Vero, read-out: EC50 values Ave, A sample, passage 29): 0.15 µg/mL and 257 nM
EC50 (Dengue virus, DENV2, Vero, read-out: EC50 values Ave, A sample, passage 30): 0.15 µg/mL and 257 nM
EC50 (Dengue virus, DENV2, Vero, read-out: EC50 values Ave, A sample, passage 31): 129 nM
EC50 (Dengue virus, DENV2, Vero, read-out: EC50 values Ave, A sample, passage 32): 129 nM
EC50 (Dengue virus, DENV2, Vero, read-out: EC50 values Ave, A sample, passage 33): 0.15 µg/mL and 257 nM
EC50 (Dengue virus, DENV2, Vero, read-out: EC50 values Ave, A sample, passage 34): 0.15 µg/mL and 257 nM
EC50 (Dengue virus, DENV2, Vero, read-out: EC50 values Ave, A sample, passage 35): 0.15 µg/mL and 257 nM
EC50 (Dengue virus, DENV2, Vero, read-out: EC50 values Ave, A sample, passage 36): 0.15 µg/mL and 257 nM
EC50 (Dengue virus, DENV2, Vero, read-out: EC50 values Ave, A sample, passage 37): 0.3 µg/mL and 515 nM
EC50 (Dengue virus, DENV2, Vero, read-out: EC50 values Ave, A sample, passage 38): 0.3 µg/mL and 515 nM
EC50 (Dengue virus, DENV2, Vero, read-out: EC50 values Ave, A sample, passage 39): 1290 nM
EC50 (Dengue virus, DENV2, Vero, read-out: EC50 values Ave, A sample, passage 40): 1290 nM
EC50 (Dengue virus, DENV2, Vero, read-out: EC50 values Ave, A sample, passage 41): 1290 nM
EC50 (Dengue virus, DENV2, Vero, read-out: EC50 values Ave, A sample, passage 42 (END)): 1290 nM
EC50 (Dengue virus, DENV2, Vero, read-out: EC50 values Ave, B sample, passage 1): 3.7e-05 µg/mL and 0.063 nM
EC50 (Dengue virus, DENV2, Vero, read-out: EC50 values Ave, B sample, passage 2): 3.7e-05 µg/mL and 0.063 nM
EC50 (Dengue virus, DENV2, Vero, read-out: EC50 values Ave, B sample, passage 3): 3.7e-05 µg/mL and 0.063 nM
EC50 (Dengue virus, DENV2, Vero, read-out: EC50 values Ave, B sample, passage 4): 3.7e-05 µg/mL and 0.063 nM
EC50 (Dengue virus, DENV2, Vero, read-out: EC50 values Ave, B sample, passage 5): 3.7e-05 µg/mL and 0.063 nM
EC50 (Dengue virus, DENV2, Vero, read-out: EC50 values Ave, B sample, passage 6): 0.126 nM
EC50 (Dengue virus, DENV2, Vero, read-out: EC50 values Ave, B sample, passage 7): 0.126 nM

From paper PMC10033419, “Blocking NS3–NS4B interaction inhibits dengue virus in non-human primates” (Nature, 2023)
